Experimental data taken from publication PMC12903969, “Discovery of a Novel and Potent Kir4.1 Inhibitor as a Safe and Rapid‐Onset Antidepressant Agent in Mice” (Advanced Science, 2025).
Values joined by “and” are separate entries in the source; they are usually repeats but may differ in a detail not shown here. Equal entries are not always repeated. Where two headings read alike, the source gives them in different places.

Legend:
KCNQ2 = KCNQ2 (Homo sapiens, UniProt O43526); assay: KCNQ2 channel inhibition; assay type: cell-based; set-up: KCNQ2 inhibition, single recordings: unit not given here
Excerpt: (§1) Whole‐cell patch‐clamp recordings were obtained either in transiently transfected CHO‐K1 cells or in primary cultured astrocytes at room temperature using standard patch‐clamp techniques with an Axopatch‐700B amplifier (Axon Instruments). The signals were filtered at 2 kHz and sampled at 20 kHz using the Digidata 1440A interface (Axon Instruments). The resistance of borosilicate glass pipettes was typically 2–4 MΩ when filled with the internal solution. Drug application was facilitated using a BPS perfusion system (ALA Scientific Instruments). Macroscopic currents generated by expressed potassium channels were recorded under the voltage‐clamp conditions with an internal pipette solution composed of (in mM): 140 KCl, 5 NaCl, 1 CaCl2, 1 MgCl2, 10 HEPES, and 10 EGTA, pH 7.2 adjusted with KOH. The external solution contained (in mM): 140 NaCl, 5 KCl, 2 CaCl2, 1 MgCl2, 10 glucose, and 10 HEPES, pH 7.4 adjusted with NaOH. Currents were elicited with a hyperpolarized voltage at −120 mV from the holding potential of −80 mV, followed by a ramp voltage depolarizing to +50 mV. Astrocytic resting membrane potentials were recorded under current‐clamp conditions (I = 0 pA) using standard internal and external solutions, determined immediately after achieving whole‐cell mode.

[1] = target: T1, DAT (dopamine transporter) (Homo sapiens, UniProt Q01959); assay: DAT functional assay (fluorescent neurotransmitter transporter uptake); assay type: cell-based; set-up: DAT inhibition, replicates: unit not given here
T1 construct: expressed in transfected cells
T1 sequence (Q01959 whole entry): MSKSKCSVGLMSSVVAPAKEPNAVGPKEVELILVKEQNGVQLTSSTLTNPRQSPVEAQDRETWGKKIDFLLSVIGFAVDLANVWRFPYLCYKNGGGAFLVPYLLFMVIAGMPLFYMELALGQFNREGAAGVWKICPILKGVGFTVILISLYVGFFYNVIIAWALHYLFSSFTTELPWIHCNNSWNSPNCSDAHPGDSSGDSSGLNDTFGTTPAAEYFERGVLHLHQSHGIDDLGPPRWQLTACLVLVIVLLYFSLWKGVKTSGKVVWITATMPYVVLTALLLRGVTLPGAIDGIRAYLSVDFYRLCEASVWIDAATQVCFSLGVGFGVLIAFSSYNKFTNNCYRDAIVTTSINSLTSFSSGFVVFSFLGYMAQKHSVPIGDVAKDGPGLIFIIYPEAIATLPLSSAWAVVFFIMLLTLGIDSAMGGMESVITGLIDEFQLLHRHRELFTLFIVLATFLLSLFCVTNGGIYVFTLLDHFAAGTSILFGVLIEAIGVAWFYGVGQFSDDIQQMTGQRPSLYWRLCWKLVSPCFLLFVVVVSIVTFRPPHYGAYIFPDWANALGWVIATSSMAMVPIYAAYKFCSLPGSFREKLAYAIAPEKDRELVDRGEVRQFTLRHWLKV
Procedure: The 5‐HTT/DAT functional assays were commissioned by Elsevier Science and Technology Co., Ltd. (Beijing). A fluorescence‐based neurotransmitter assay was conducted using a Neurotransmitter Transporter Uptake Assay Kit (Molecular Devices, R8174), according to the manufacturer's protocol. Flp‐in T‐rex 293 cells transiently expressing the human norepinephrine transporter and HEK293 cells stably expressing the human dopamine or serotonin transporters were seeded in PDL‐coated 384‐well plates and incubated overnight. Subsequently, the medium was removed, and the cells were treated with 16 µL of compounds diluted in assay buffer for 0.5 h at 37 °C. Centanafadine and 0.1% DMSO served as positive and negative controls, respectively. Then, 16 µL of dye mix prepared in 1× Hanks’ Balanced Salt Solution was added to each well and incubated at 37 °C for 1 h. Finally, the data point was acquired via a fluorescence plate reader with excitation at 450 nm and emission at 528 nm.

Kir4.1 E158N = target: T2, Kir4.1 E158N (Homo sapiens, UniProt P78508, E158N); assay: Whole-cell patch clamp, Kir4.1 point mutant E158N; assay type: cell-based
T2 construct: expressed in transfected cells; host or cells: CHO-K1
T2 sequence (P78508 1-379 E158N): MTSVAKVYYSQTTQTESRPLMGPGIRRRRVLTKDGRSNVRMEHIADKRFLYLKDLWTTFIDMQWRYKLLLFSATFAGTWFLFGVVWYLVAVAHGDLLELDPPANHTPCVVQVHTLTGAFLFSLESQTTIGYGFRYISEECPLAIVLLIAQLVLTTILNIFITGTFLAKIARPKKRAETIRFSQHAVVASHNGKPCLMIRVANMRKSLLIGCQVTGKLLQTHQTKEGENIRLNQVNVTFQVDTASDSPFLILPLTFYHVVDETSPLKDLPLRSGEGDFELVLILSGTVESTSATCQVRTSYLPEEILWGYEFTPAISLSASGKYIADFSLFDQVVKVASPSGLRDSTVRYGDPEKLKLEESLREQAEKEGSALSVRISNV
Procedure: Plasmids encoding WT human potassium channels Kir1.1, Kir2.1, Kir2.2, Kir4.1, and Kir4.2 were obtained from the Beijing Genomics Institute. All point mutations were constructed using the QuickChange II Site‐Directed Mutagenesis Kit (Stratagene) and subsequently verified by sequencing.
CHO‐K1 cells were maintained in DMEM/F12 growth medium containing 10% fetal bovine serum. Plasmids encoding the target genes (3600 ng) and enhanced green fluorescent protein (400 ng) were cotransfected into cells using Lipofectamine 2000 (Invitrogen) in accordance with the manufacturer's instructions. Cells were seeded onto poly‐d‐lysine (PDL)‐coated glass coverslips 1 h prior to electrophysiological recordings. All cells were cultured under standard conditions of 5% CO2 at 37 °C.
as §1

C57BL/6J mice after CSDS = assay: CSDS model, forced swim test; assay type: in vivo; conditions: single i.p. injection 10 mg kg−1
Procedure: The 10‐day CSDS paradigm was conducted as previously described.^[ [24] ^] CD‐1 aggressive mice were singly housed in defeat cages on one side of a perforated plexiglass partition 24 h before the defeat session. Experimental C57BL/6J mice were placed daily on the resident cage side of a novel CD‐1 aggressor that rapidly initiated a physical attack on the intruder. After 10‐min of social defeat, the intruder mice were housed on the opposite side of the partition within a shared home cage, experiencing further sensory contact for the subsequent 24 h. In contrast, control mice were maintained in their home cages and allowed to explore the empty defeat cages for 10 min each day.
Mice were placed individually in a transparent glass cylinder (25 cm high, 10 cm wide) filled with water (temperature 23–25 °C) to a depth of 10 cm, and prevented from making contact with the bottom. Mice behaviors were videotaped from each side. The observation period lasted for 6 min, with the final 4 min used to measure immobile behavior, which was processed using the AnyMaze Tracking System (Stoelting).

mice = assay: 21-day chronic administration: body weight, organ weight, serum biochemistry
[2] = 10 mg/kg, 21-day chronic administration, individual animals
[3] = serum, 10 mg/kg, 21-day chronic administration, individual animals

SMILES: c1ccc2c(c1)oc1ccc(Nc3ccnc(NCCCN4CCOCC4)n3)cc12 [JX3212, N^4-(dibenzo[b,d]furan-2-yl)-N^2-(3-morpholinopropyl)pyrimidine-2,4-diamine]
- IC50 (KCNQ2): 5.99 µM
- KCNQ2 inhibition, single recordings (KCNQ2; concentration 3): 22.0588 and 21.8921 and 13.4681
- KCNQ2 inhibition, single recordings (KCNQ2; concentration 10): 79.5346 and 67.5255 and 78.5615
- KCNQ2 inhibition, single recordings (KCNQ2; concentration 30 (unit not given)): 97.6879 and 84.1578 and 95.4545
- IC50 [1]: 5.2 µM
- DAT inhibition, replicates ([1]; concentration 3): -3.23 and -17.79
- DAT inhibition, replicates ([1]; concentration 10): -5 and -8.74
- DAT inhibition, replicates ([1]; concentration 30): 1.89 and -0.08
- DAT inhibition, replicates ([1]; concentration 100): -1.46 and -1.85
- DAT inhibition, replicates ([1]; concentration 300): -3.23 and -0.87
- DAT inhibition, replicates ([1]; concentration 1000): 32
- DAT inhibition, replicates ([1]; concentration 3000): 70.17 and 28.06
- DAT inhibition, replicates ([1]; concentration 10000): 80.01 and 56.79
- DAT inhibition, replicates ([1]; concentration 30000): 99.88 and 90.83
- DAT inhibition, replicates ([1]; concentration 100000 (unit not given)): 110.9 and 109.92
- inhibition at 3 µM (Kir4.1 E158N; 3 µM, mean ± SEM, read-out: current inhibition, Kir4.1 E158N): 29.4 ± 2.66%
- Mutation: E158N inhibition, single recordings (Kir4.1 E158N; JX3212 3 µM (Fig 2D)): 26.6694 and 31.4659 and 31.9554
- inhibition at 3 µM (Kir4.1 E158N; JX3212 3 µM (Fig 2D), read-out: Mutation: E158N inhibition, single recordings): 27.7%
- CSDS: immobility in FST (in words) (C57BL/6J mice after CSDS): reduced immobility duration
- body weight during 21-day chronic administration (in words) (mice; 10 mg kg−1 per day, vs vehicle): no evident effect on body weight
- Kidney/Body Weight Ratio (%) (mice; [2]): 1.122% and 1.187% and 1.1008% and 0.9864% and 1.07% (2×) and 1.145% and 1.0748% and 1.06% and 1.171%
- Liver/Body Weight Ratio (%) (mice; [2]): 5.072% and 4.477% and 4.872% and 4.814% and 4.623% and 5.084% and 4.1308% and 4.637% and 4.391% and 4.945%
- Body weight (mice; 10 mg/kg, day 7, individual animals): 24.2 (3×) and 24 and 25.6 and 25.4 and 23.8
- Body weight (mice; 10 mg/kg, day 8, individual animals): 24 and 25.9 and 24.2 (2×) and 24.4 and 25 and 26
- Body weight (mice; 10 mg/kg, day 9, individual animals): 25 and 24 and 26.3 and 25.6 (2×) and 24.7 and 24.1
- Body weight (mice; 10 mg/kg, day 10, individual animals): 26.3 and 25.4 (2×) and 24.1 and 25 and 25.5
- liver-to-body and kidney-to-body weight ratio (in words) (mice; 21-day administration): no appreciable differences
- serum aspartate aminotransferase and urea levels (in words) (mice; 21-day administration): comparable
- serum creatinine level (in words) (mice; 21-day administration): marked decreases in creatinine levels
- ALT (mice; [3]): 36 and 35 and 41 and 32 and 37 and 33 and 31 and 29
- AST (mice; [3]): 167 and 207 and 243 and 139 and 147 and 172 and 200 and 131 and 133 and 155
- Cr (mice; [3]): 19 and 18 and 20 and 21 and 22 and 23
- Urea (mice; [3]): 5.59 and 3.68 and 6 and 5.19 and 5.88 and 6.46 and 5.16 and 5.73 and 5.29 and 5.71
